Test results as given in ChEMBL document CHEMBL1158266, “Cyclopentabenzofuran lignan protein synthesis inhibitors from Aglaia odorata” (J Nat Prod, 1996).
≈ marks a conversion by molar mass, not a printed value. Calls of active or inactive are those of the source. The calls are words filed in the database; no cut-off is given here.

Experiments:
[1] = system: NRK; assay: Inhibition of protein synthesis in rat NRK cells expressing K-ras assessed as L-[4,5-3H]leucine incorporation after 1 hr; format: functional, cell-based
[2] = system: NRK; assay: Inhibition of DNA synthesis in rat NRK cells expressing K-ras assessed as [methyl-3H]thymidine incorporation after 1 hr; format: functional, cell-based
[3] = system: NRK; assay: Inhibition of RNA synthesis in rat NRK cells expressing K-ras assessed as [5-3H]uridine incorporation after 1 hr; format: functional, cell-based
[4] = system: NRK; assay: Decrease in cellular Ras protein level in rat NRK cells expressing K-ras at 2.5 ng/mL after 1 to 3 days by immunoblotting; format: functional, cell-based
[5] = system: NRK; assay: Induction of morphological changes in rat NRK cells expressing K-ras assessed as flat morphology and cytoskeletal organization at 10 to 30 ng/mL after 1 day; format: functional, cell-based
[6] = system: NRK; assay: Induction of morphological changes in rat NRK cells expressing K-ras assessed as flat morphology and cytoskeletal organization at 10 to 30 ng/mL after 3 days; format: functional, cell-based
[7] = system: NRK; assay: Growth inhibition of rat NRK cells expressing K-ras; format: functional, cell-based
[8] = system: NIH3T3; assay: Growth inhibition of mouse NIH/3T3 cells expressing K-ras; format: functional, cell-based
[9] = system: NIH3T3; assay: Growth inhibition of mouse NIH/3T3 cells expressing H-ras; format: functional, cell-based
[10] = system: NIH3T3; assay: Growth inhibition of mouse NIH/3T3 cells expressing N-ras; format: functional, cell-based
[11] = system: NRK; assay: Growth inhibition of rat NRK cells; format: cell-based
[12] = Growth inhibition of mouse NIH/3T3 cells; format: cell-based; conditions: NIH3T3
[13] = system: NRK; assay: Induction of morphological changes in rat NRK cells expressing K-ras assessed as flat morphology; format: functional, cell-based
[14] = system: NRK; assay: Induction of morphological changes in rat NRK cells expressing K-ras-ts proto-oncogene assessed as flat morphology; format: functional, cell-based

Row | Compound | Activity [1] | Activity [2] | Activity [3] | Activity [4] | Activity [5] | Activity [6] | IC50 [7] [ng/mL] | IC50 [8] [ng/mL] | IC50 [9] [ng/mL] | IC50 [10] [ng/mL] | IC50 [11] [ng/mL] | IC50 [12] [ng/mL] | Activity [13] | Activity [14]
1 | COc1ccc([C@@]23Oc4cc(OC)cc(OC)c4[C@]2(O)C2=C(C(=O)N4CCC[C@H]4N2)[C@H]3c2ccccc2)cc1 [AGLAIASTATIN] | Active | inactive | inactive | Active | Active | Active | 2.8 (≈ 0.00532 µM) | 5.6 (≈ 0.0106 µM) | 1 (≈ 0.0019 µM) | 1.8 (≈ 0.00342 µM) | 2.1 (≈ 0.00399 µM) | 4.1 (≈ 0.00779 µM) |  | 
2 | COc1ccc([C@@]23Oc4cc(OC)cc(OC)c4[C@]2(O)c2nc4n(c(=O)c2[C@H]3c2ccccc2)CCC4)cc1 | Active | inactive | inactive | Active | Active | Active | 81 (≈ 0.154 µM) | 8.9 (≈ 0.017 µM) | 7.8 (≈ 0.0149 µM) | 8 (≈ 0.0153 µM) | 9.8 (≈ 0.0187 µM) | 7.6 (≈ 0.0145 µM) |  | 
3 | COc1ccc([C@@]23Oc4cc(OC)cc(OC)c4[C@]2(O)[C@H](O)C[C@H]3c2ccccc2)cc1 [ROCAGLAOL] | Active | inactive | inactive | Active | Active | Active | 5.8 (≈ 0.0133 µM) | 7 (≈ 0.0161 µM) | 5.3 (≈ 0.0122 µM) | 7.5 (≈ 0.0173 µM) | 10 (≈ 0.023 µM) | 2 (≈ 0.0046 µM) |  | 
4 | CC[C@@]12CC(C(=O)OC)=C3Nc4cc5c(cc4[C@@]34CCN(C[C@H]3O[C@H]31)[C@@H]24)[C@@H]1[C@H](O5)[C@@H](O)[C@@]2(CC)CC(C(=O)OC)=C3Nc4c(cc(O)c(OC)c4OC)[C@@]34CCN1[C@@H]24 |  |  |  |  |  |  |  |  |  |  |  |  | Active | Active
5 | COc1c(C=O)c(O)cc2c1C(=O)c1ccccc1C2=O |  |  |  |  |  |  |  |  |  |  |  |  | Active | Active
6 | CC[C@@]12C=CCN3CC[C@]4(C(=C(C(=O)OC)C1)Nc1cc5c(cc14)[C@H]1[C@@H](O5)[C@H](O)[C@]4(CC)CC(C(=O)OC)=C5Nc6c(cc(O)c(OC)c6OC)[C@@]56CCN1[C@H]46)[C@H]32 |  |  |  |  |  |  |  |  |  |  |  |  | Active | Active
